ChEMBL document CHEMBL3352575, “Synthesis, in vitro and in vivo antitumor activity of pyrazole-fused 23-hydroxybetulinic acid derivatives” (Bioorg Med Chem Lett, 2015)

How the values were obtained:
Assay type in all cases: functional, cell-based
B16 = assay: Antiproliferative activity against mouse B16 cells after 72 hrs by MTT assay; settings: B16, 72 h
HeLa = assay: Antiproliferative activity against human HeLa cells after 72 hrs by MTT assay
[1] = Antiproliferative activity against human SF763 cells after 72 hrs by MTT assay; settings: SF763, 72 h
[2] = Antiproliferative activity against human HL60 cells after 72 hrs by MTT assay; settings: HL-60, 72 h
[3] = Antiproliferative activity against human Bel7402 cells after 72 hrs by MTT assay; settings: Bel-7402, 72 h

Structure (SMILES)	IC50 (B16)	IC50 (HeLa)	IC50 [1]	IC50 [2]	IC50 [3]
C=C(C)[C@@H]1CC[C@]2(C(=O)OCc3ccccc3)CC[C@]3(C)[C@H](CC[C@@H]4[C@@]5(C)Cc6c[nH]nc6[C@@](C)(CO)[C@@H]5CC[C@]43C)[C@@H]12	13 µM	16.1 µM	11.7 µM	20.1 µM	13.9 µM
C=C(C)[C@@H]1CC[C@]2(C(=O)OCc3ccccc3)CC[C@]3(C)[C@H](CC[C@@H]4[C@@]5(C)Cc6cn(C(C)=O)nc6[C@@](C)(COC(C)=O)[C@@H]5CC[C@]43C)[C@@H]12	28 µM	30.9 µM	28.4 µM	33.6 µM	26.7 µM
C=C(C)[C@@H]1CC[C@]2(C(=O)O)CC[C@]3(C)[C@H](CC[C@@H]4[C@@]5(C)Cc6cn(C(C)=O)nc6[C@@](C)(COC(C)=O)[C@@H]5CC[C@]43C)[C@@H]12	37.4 µM	33.8 µM	31.5 µM	39.1 µM	30.7 µM
C=C(C)[C@@H]1CC[C@]2(C(=O)O)CC[C@]3(C)[C@H](CC[C@@H]4[C@@]5(C)Cc6c[nH]nc6[C@@](C)(COC(C)=O)[C@@H]5CC[C@]43C)[C@@H]12	15.3 µM	17.8 µM	14.1 µM	25.1 µM	17.1 µM
C=C(C)[C@@H]1CC[C@]2(C(=O)O)CC[C@]3(C)[C@H](CC[C@@H]4[C@@]5(C)Cc6c[nH]nc6[C@@](C)(CO)[C@@H]5CC[C@]43C)[C@@H]12	19.8 µM	21.1 µM	20.8 µM	29.1 µM	21 µM
C=C(C)[C@@H]1CC[C@]2(C(=O)OCC)CC[C@]3(C)[C@H](CC[C@@H]4[C@@]5(C)Cc6cn(C(C)=O)nc6[C@@](C)(COC(C)=O)[C@@H]5CC[C@]43C)[C@@H]12	30.2 µM	32.6 µM	29.4 µM	40.2 µM	33.7 µM
C=C(C)[C@@H]1CC[C@]2(C(=O)OCC(=O)OCC)CC[C@]3(C)[C@H](CC[C@@H]4[C@@]5(C)Cc6cn(C(C)=O)nc6[C@@](C)(COC(C)=O)[C@@H]5CC[C@]43C)[C@@H]12	35.7 µM	40.4 µM	37.6 µM	45.6 µM	36 µM
C=CCOC(=O)[C@]12CC[C@@H](C(=C)C)[C@@H]1[C@H]1CC[C@@H]3[C@@]4(C)Cc5cn(C(C)=O)nc5[C@@](C)(COC(C)=O)[C@@H]4CC[C@@]3(C)[C@]1(C)CC2	19.8 µM	27.4 µM	19.5 µM	32.3 µM	23.1 µM
C=C(C)[C@@H]1CC[C@]2(C(=O)OCC)CC[C@]3(C)[C@H](CC[C@@H]4[C@@]5(C)Cc6c[nH]nc6[C@@](C)(CO)[C@@H]5CC[C@]43C)[C@@H]12	16.1 µM	16.2 µM	13.3 µM	21.1 µM	15.2 µM
C=CCOC(=O)[C@]12CC[C@@H](C(=C)C)[C@@H]1[C@H]1CC[C@@H]3[C@@]4(C)Cc5c[nH]nc5[C@@](C)(CO)[C@@H]4CC[C@@]3(C)[C@]1(C)CC2	18 µM	19.5 µM	18.7 µM	24.3 µM	17.8 µM
C=C(C)[C@@H]1CC[C@]2(C(=O)O[C@@H]3O[C@H](CO)[C@@H](O)[C@H](O)[C@H]3O)CC[C@]3(C)[C@H](CC[C@@H]4[C@@]5(C)Cc6c[nH]nc6[C@@](C)(COC(C)=O)[C@@H]5CC[C@]43C)[C@@H]12	18.9 µM	20 µM	20.1 µM	28.5 µM	14.1 µM
C=C(C)[C@@H]1CC[C@]2(C(=O)N3CCOCC3)CC[C@]3(C)[C@H](CC[C@@H]4[C@@]5(C)Cc6c[nH]nc6[C@@](C)(COC(C)=O)[C@@H]5CC[C@]43C)[C@@H]12	7.89 µM	10 µM	8.45 µM	9.85 µM	10.2 µM
C=C(C)[C@@H]1CC[C@]2(C(=O)NCC(=O)OC)CC[C@]3(C)[C@H](CC[C@@H]4[C@@]5(C)Cc6c[nH]nc6[C@@](C)(COC(C)=O)[C@@H]5CC[C@]43C)[C@@H]12	18.9 µM	21.2 µM	17.7 µM	20.9 µM	19.3 µM
C=C(C)[C@@H]1CC[C@]2(C(=O)OCCO)CC[C@]3(C)[C@H](CC[C@@H]4[C@@]5(C)Cc6cn(C(C)=O)nc6[C@@](C)(COC(C)=O)[C@@H]5CC[C@]43C)[C@@H]12	33.8 µM	40.1 µM	32.1 µM	43.2 µM	34.4 µM
C=C(C)[C@@H]1CC[C@]2(C(=O)Oc3ccc(C#N)cc3)CC[C@]3(C)[C@H](CC[C@@H]4[C@@]5(C)Cc6cn(C(C)=O)nc6[C@@](C)(COC(C)=O)[C@@H]5CC[C@]43C)[C@@H]12	22.5 µM	28 µM	23.4 µM	31.3 µM	18.1 µM
C=C(C)[C@@H]1CC[C@]2(C(=O)N3CCOCC3)CC[C@]3(C)[C@H](CC[C@@H]4[C@@]5(C)Cc6c[nH]nc6[C@@](C)(CO)[C@@H]5CC[C@]43C)[C@@H]12	31.1 µM	35.5 µM	33.7 µM	39 µM	39.4 µM
C=C(C)[C@@H]1CC[C@]2(C(=O)NCC(=O)O)CC[C@]3(C)[C@H](CC[C@@H]4[C@@]5(C)Cc6c[nH]nc6[C@@](C)(CO)[C@@H]5CC[C@]43C)[C@@H]12	30.8 µM	32.7 µM	27.4 µM	34.9 µM	36.1 µM
C=C(C)[C@@H]1CC[C@]2(C(=O)OCc3ccccc3)CC[C@]3(C)[C@H](CC[C@@H]4[C@@]5(C)Cc6cn(CC)nc6[C@@](C)(CO)[C@@H]5CC[C@]43C)[C@@H]12	38.2 µM	40 µM	39.6 µM	40.1 µM	45.8 µM
C=CCn1cc2c(n1)[C@@](C)(CO)[C@@H]1CC[C@]3(C)[C@H](CC[C@@H]4[C@H]5[C@H](C(=C)C)CC[C@]5(C(=O)OCc5ccccc5)CC[C@]43C)[C@@]1(C)C2	20.1 µM	26.4 µM	21.1 µM	31.1 µM	29.6 µM
C=C(C)[C@@H]1CC[C@]2(C(=O)OCc3ccccc3)CC[C@]3(C)[C@H](CC[C@@H]4[C@@]5(C)Cc6cn(CC(=O)OCC)nc6[C@@](C)(CO)[C@@H]5CC[C@]43C)[C@@H]12	32.9 µM	37 µM	33 µM	39.1 µM	43 µM
C=C(C)[C@@H]1CC[C@]2(C(=O)O)CC[C@]3(C)[C@H](CC[C@@H]4[C@@]5(C)Cc6cn(CC)nc6[C@@](C)(CO)[C@@H]5CC[C@]43C)[C@@H]12	42.4 µM	58.8 µM	44.1 µM	47 µM	50.3 µM
C=C(C)[C@@H]1CC[C@]2(C(=O)O)CC[C@]3(C)[C@H](CC[C@@H]4[C@@]5(C)Cc6cn(CCC)nc6[C@@](C)(CO)[C@@H]5CC[C@]43C)[C@@H]12	44.3 µM	54.1 µM	41 µM	45.8 µM	48 µM
C=C(C)[C@@H]1CC[C@]2(C(=O)O)CC[C@]3(C)[C@H](CC[C@@H]4[C@@]5(C)Cc6cn(CC(=O)OCC)nc6[C@@](C)(CO)[C@@H]5CC[C@]43C)[C@@H]12	29.4 µM	47.2 µM	35.9 µM	49.8 µM	40.6 µM
C=C(C)[C@@H]1CC[C@]2(C(=O)O)CC[C@]3(C)[C@H](CC[C@@H]4[C@@]5(C)Cc6cn(CC(=O)O)nc6[C@@](C)(CO)[C@@H]5CC[C@]43C)[C@@H]12	39.7 µM	59.9 µM	30.2 µM	46.3 µM	50.2 µM
C=C(C)[C@@H]1CC[C@]2(C(=O)OCC)CC[C@]3(C)[C@H](CC[C@@H]4[C@@]5(C)Cc6cn(CC)nc6[C@@](C)(COC(C)=O)[C@@H]5CC[C@]43C)[C@@H]12	19.4 µM	24.2 µM	19.4 µM	28.1 µM	30.2 µM
C=CCOC(=O)[C@]12CC[C@@H](C(=C)C)[C@@H]1[C@H]1CC[C@@H]3[C@@]4(C)Cc5cn(CC=C)nc5[C@@](C)(COC(C)=O)[C@@H]4CC[C@@]3(C)[C@]1(C)CC2	20.1 µM	27.3 µM	22 µM	30.8 µM	33.5 µM
C=C(C)[C@@H]1CC[C@]2(C(=O)OCC(=O)OCC)CC[C@]3(C)[C@H](CC[C@@H]4[C@@]5(C)Cc6cn(CC(=O)OCC)nc6[C@@](C)(COC(C)=O)[C@@H]5CC[C@]43C)[C@@H]12	29.3 µM	38.2 µM	34 µM	35.1 µM	39.2 µM
C=CCOC(=O)[C@]12CC[C@@H](C(=C)C)[C@@H]1[C@H]1CC[C@@H]3[C@@]4(C)Cc5cn(CC=C)nc5[C@@](C)(CO)[C@@H]4CC[C@@]3(C)[C@]1(C)CC2	24.9 µM	32.1 µM	25.3 µM	33.4 µM	38.8 µM
C=C(C)[C@@H]1CC[C@]2(C(=O)OCC(=O)O)CC[C@]3(C)[C@H](CC[C@@H]4[C@@]5(C)Cc6cn(CC(=O)O)nc6[C@@](C)(CO)[C@@H]5CC[C@]43C)[C@@H]12	36 µM	50 µM	41.8 µM	44.8 µM	47.6 µM
COc1cccc2c1C(=O)c1c(O)c3c(c(O)c1C2=O)C[C@@](O)(C(=O)CO)C[C@@H]3O[C@H]1C[C@H](N)[C@H](O)[C@H](C)O1 [DOXORUBICIN]					0.22 µM
